ChEMBL document CHEMBL1201862, “PubChem BioAssay data set” (2004)
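Results reflect a 48-hour exposure of cells in 96-well plates to compound at five concentrations. GI50: concentration for 50% inhibition of growth.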 Calls of active or inactive are those of the source. Rule as the data show it: active = GI50 up to about 1.1 µM and inactive = higher.

How the values were obtained:
Assay in all cases: NCI tumour cell line growth inhibition, 48 h
[1] = system: LXFL 529
[2] = system: M19-MEL
[3] = system: DMS-273
[4] = system: SNB-78
[5] = system: RXF 631
[6] = system: KM-20L2
[7] = system: HOP-18
[8] = system: XF498
[9] = system: DLD-1

Measured: GI50

CN/N=C(\C)CC(=O)Nc1cccc(Cl)c1C
inactive: [1] > 100 µM | [2] > 100 µM | [3] 53.7 µM | [4] > 100 µM | [5] > 100 µM | [6] > 100 µM | [7] > 100 µM | [8] > 100 µM | [9] > 100 µM
